Biological target: T1, CqsR-LBD (Vibrio cholerae, UniProt Q9KR16)
T1 construct: gene VC_1831; pET28B His6 tag kept; E. coli BL21(DE3)
Experiment: differential scanning fluorimetry (SYPRO Orange)
Assay type: binding
Settings: 10 mM ligand; 10 μM protein; PBS pH 7.5, 10% glycerol; Tm without ligand 46 °C
Source text: differential scanning fluorimetry (SYPRO Orange) on CqsR-LBD

Compound	Tm (°C)^b
C[C@H](N)CO [L-alaninol, (S)-(+)-2-Amino-1-propanol]	60 °C
NC(CO)CO [Serinol, 2-Amino-1,3-propanediol]	53.67 [0.58]

Reference: publication PMC7046293, “Parallel quorum-sensing system in Vibrio cholerae prevents signal interference inside the host” (PLoS Pathogens, 2020)
